Source: patent publication US20050137806A1 (priority 2003, published 2005)
Structures can show the parent of a compound that is named as a salt.

System: a cell line
Type: cell-based
Conditions: for mitotic index as a function of drug concentration (dose response path): FIG. 2A, drugs in aqueous DMSO, multiple concentrations, fraction of cells in mitosis
Method: As shown, four different drugs were tested against a cell line at multiple concentrations. Taxol, one of the drugs, was tested twice. For each drug at each concentration various images were taken to extract various cellular features by image analysis. In some cases, basic extracted features are analyzed using appropriate classification algorithm to provide higher-level biological classifications such as mitotic state. In FIG. 2A, the feature is “mitotic index” (a numerical classification of the cells an image on basis of the fraction of them in mitosis) shown as the dependent variable with respect to concentration in a two-dimensional plot.
All drugs were provided in an aqueous solution of dimethyl sulfoxide (DMSO). As a negative control, the cells were exposed to aqueous DMSO without any drug present. Normally, an aqueous DMSO solution is used as the solvent for delivering drugs to samples. The feature values extracted for cells exposed to the DMSO control are shown as signatures 207.
Another approach replaces the concentration variable (generally a level of stimulus variable) with another variable that can depict a trajectory but is relatively independent of potency. In other words, the chosen feature space is independent (or largely independent) of dose (concentration). […] This new variable is a measure of the number of cells that survived the treatment. Because the variable changes only when the drug begins taking effect (regardless of absolute concentration), it effectively puts all curves on the same potency scale. Using this plot, one can more rigorously classify Taxol and Cytochalasin A as having the same mechanism of action (based on mitotic index as the dependent variable).

Compound	mitotic index as a function of drug concentration (dose response path)	mitotic index versus number of cells (response path comparison) (FIG. 2B, concentration not displayed, number of cells that survived treatment as axis)
C=C1[C@@H](C)[C@H]2[C@H](Cc3ccccc3)NC(=O)[C@]23OC(=O)/C=C/C(=O)CCC[C@@H](C)C/C=C/[C@H]3[C@@H]1O [Cytochalasin A]	S-shaped	
CC[C@]1(O)C[C@@H]2CN(CCc3c([nH]c4ccccc34)[C@@](C(=O)OC)(c3cc4c(cc3OC)N(C)[C@H]3[C@@](O)(C(=O)OC)[C@H](OC(C)=O)[C@]5(CC)C=CCN6CC[C@]43[C@@H]65)C2)C1 [Vinblastine Sulfate]	relatively high numerical value of mitotic index at various concentrations	
CC[C@@H]1/C=C/C=C/C[C@H](C)[C@H](O)[C@](C)(O)C(=O)[C@H](C)[C@@H](O)[C@H](C)C(=O)[C@H](C)[C@@H](O)[C@H](C)/C=C/C(=O)O[C@H]2[C@@H](C)[C@@H](CC1)O[C@@]1(CC[C@@H](C)[C@@H](C[C@H](C)O)O1)[C@@H]2C [Oligomycin A]	very little impact on mitotic index until relatively high concentrations are used	
CC(=O)O[C@H]1C(=O)[C@@]2(C)[C@H]([C@H](OC(=O)c3ccccc3)[C@]3(O)C[C@H](OC(=O)[C@H](O)[C@@H](NC(=O)c4ccccc4)c4ccccc4)C(C)=C1C3(C)C)[C@]1(OC(C)=O)CO[C@@H]1C[C@@H]2O [Taxol]	S-shaped	act similarly to the tested concentrations of Vinblastine Sulfate
